Numbered stars: 1 amine (or outer) side, 2 acyl side, 3 side chain; on linkers, the order of the positions; unused ones are H or OH. Bridge positions count the residues as written; N and C are the ends. Square brackets hold non-standard residues; d marks the D form. Peptide text beside a SMILES is read from it. I, II: the chains in the order shown. Diglycolyl = O=C(COCC(=O)[*:2])[*:1]; NMeR = CN[C@@H](CCCNC(=N)N)C(=O)O; Tic = O=C(O)[C@@H]1Cc2ccccc2CN1; Pen = CC(C)(S)[C@H](N)C(=O)O

α4β7, sequence (P13612 34-1032): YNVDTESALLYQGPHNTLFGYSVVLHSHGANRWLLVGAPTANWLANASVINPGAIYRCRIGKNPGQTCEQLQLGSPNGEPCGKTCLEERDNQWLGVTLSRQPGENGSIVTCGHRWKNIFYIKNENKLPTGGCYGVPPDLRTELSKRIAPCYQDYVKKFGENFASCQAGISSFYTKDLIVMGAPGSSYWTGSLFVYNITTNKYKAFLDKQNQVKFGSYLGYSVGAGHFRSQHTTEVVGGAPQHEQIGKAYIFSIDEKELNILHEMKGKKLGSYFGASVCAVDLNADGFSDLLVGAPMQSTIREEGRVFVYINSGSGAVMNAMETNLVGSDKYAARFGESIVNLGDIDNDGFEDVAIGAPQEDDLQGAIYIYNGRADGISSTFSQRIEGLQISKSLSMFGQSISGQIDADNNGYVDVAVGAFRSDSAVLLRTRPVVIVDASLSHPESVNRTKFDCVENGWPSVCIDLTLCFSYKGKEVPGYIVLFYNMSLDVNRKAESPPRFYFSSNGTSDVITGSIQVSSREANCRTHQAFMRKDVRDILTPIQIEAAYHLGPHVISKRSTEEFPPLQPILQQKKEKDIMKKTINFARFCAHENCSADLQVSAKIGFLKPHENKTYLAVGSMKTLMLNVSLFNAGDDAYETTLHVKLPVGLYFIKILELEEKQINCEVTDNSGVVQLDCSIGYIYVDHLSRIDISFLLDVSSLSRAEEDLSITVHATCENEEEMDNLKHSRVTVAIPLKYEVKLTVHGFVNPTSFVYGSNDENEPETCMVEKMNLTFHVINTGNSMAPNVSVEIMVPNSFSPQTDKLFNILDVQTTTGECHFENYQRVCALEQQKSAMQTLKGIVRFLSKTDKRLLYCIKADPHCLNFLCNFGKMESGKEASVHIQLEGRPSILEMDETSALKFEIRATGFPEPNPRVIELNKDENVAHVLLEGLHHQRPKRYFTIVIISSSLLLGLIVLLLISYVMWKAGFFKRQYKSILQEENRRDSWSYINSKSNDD
α4β7, sequence (P26010 20-798): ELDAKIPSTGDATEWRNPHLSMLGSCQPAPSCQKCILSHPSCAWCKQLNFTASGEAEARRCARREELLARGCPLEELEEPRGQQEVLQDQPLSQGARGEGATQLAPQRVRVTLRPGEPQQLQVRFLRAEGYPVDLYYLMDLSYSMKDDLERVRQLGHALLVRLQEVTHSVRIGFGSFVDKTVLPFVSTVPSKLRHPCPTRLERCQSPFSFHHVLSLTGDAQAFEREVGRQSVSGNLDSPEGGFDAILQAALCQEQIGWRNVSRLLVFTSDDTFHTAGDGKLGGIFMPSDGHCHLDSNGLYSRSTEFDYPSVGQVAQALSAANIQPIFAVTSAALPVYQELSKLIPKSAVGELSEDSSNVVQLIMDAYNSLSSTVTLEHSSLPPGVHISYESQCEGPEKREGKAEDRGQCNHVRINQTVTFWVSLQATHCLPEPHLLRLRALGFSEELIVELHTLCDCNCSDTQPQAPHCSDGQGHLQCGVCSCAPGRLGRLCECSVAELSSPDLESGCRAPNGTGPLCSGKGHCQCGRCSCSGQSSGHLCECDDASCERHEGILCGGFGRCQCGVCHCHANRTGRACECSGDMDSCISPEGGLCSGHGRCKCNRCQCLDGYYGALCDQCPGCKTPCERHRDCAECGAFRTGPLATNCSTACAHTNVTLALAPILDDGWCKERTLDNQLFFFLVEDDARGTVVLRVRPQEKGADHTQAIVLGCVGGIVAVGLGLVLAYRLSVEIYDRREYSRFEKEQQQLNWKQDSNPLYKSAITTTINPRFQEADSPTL

In this assay the target is α4β7 (Homo sapiens, UniProt P13612+P26010). Kind of assay: α4β7-MAdCAM Cell Adhesion Assay (RPMI 8866 human cells). Type of assay: cell-based. On the set-up: host or cells: RPMI 8866 human B lymphoblastoid cells. The following applies: Table 3-B, Potency (α4β7); range classes; read-out: α4β7 cell (Hu) IC50. How it is done:
RPMI 8866 human cells (Sigma #95041316) were cultured in RPMI 1640 HEPES medium (Invitrogen #22400-089) supplemented with 10% serum (Fetal Bovine Serum, Invitrogen #16140-071), 1 mM sodium pyruvate (Invitrogen #11360-070), 2 mM L-glutamine (Invitrogen #25030-081) and Penicillin-Streptomycin (Invitrogen #15140-122) at 100 units of penicillin and 100 μg of streptomycin per ml. The cells were washed two times in DMEM medium (ATCC #30-2002) supplemented with 0.1% BSA, 10 mM HEPES pH 7 and 1 mM MnCl2. The cells were re-suspended in supplemented DMEM medium at a density of 4×10^6 cells/ml.
A Nunc MaxiSorp plate was coated with rh MAdCAM-1/Fc Chimera (R&D #6065-MC) at 200 ng per well in 50 ul per well in 1×PBS and incubated at 4° C. overnight. The solution was then removed by shaking, blocked with 250 ul per well PBS containing 1% BSA, and incubated at 37° C. for 1 hr. The solution was removed by shaking. Peptides were diluted by serial dilution in a final volume of 50 ul per well (2× concentration). To each well, 50 ul of cells (200,000 cells) were added and the plate was incubated at 37° C., 5% CO2 for 30-45 min to allow cell adhesion. The wells were washed manually three times (100 ul per wash) with supplemented DMEM. After the final wash, 100 ul/well of supplemented DMEM and 10 ul/well of MTT reagent (ATTC cat#30-1010K) were added. The plate was incubated at 37° C., 5% CO2 for 2-3 hrs until a purple precipitate was visible. 100 ul of Detergent Reagent (ATTC cat#30-1010K) was added to each well. The plate was covered from the light, wrapped in Parafilm to prevent evaporation, and left overnight at room temperature in the dark. The plate was shaken for 5 min and the absorbance at 570 nm was measured. To calculate the dose response, the absorbance value of control wells not containing cells was subtracted from each test well.
One may read the IC50 as the point on the concentration scale where inhibition reaches its midpoint. For the molecule `CC(=O)N[C@@H]1C(=O)N(C)[C@@H](CCCNC(=N)N)C(=O)N[C@@H](CO)C(=O)N[C@@H](CC(=O)O)C(=O)N[C@@H]([C@@H](C)O)C(=O)N[C@@H](CC(C)C)C(=O)N[C@H](C(=O)N[C@@H](Cc2c[nH]c3ccccc23)C(=O)N[C@@H](CC(=O)O)C(=O)N[C@H](CCCCNC(=O)COCC(=O)NCCCC[C@@H](NC(=O)[C@H](CC(=O)O)NC(=O)[C@H](Cc2c[nH]c3ccccc23)NC(=O)[C@H]2NC(=O)[C@H](CC(C)C)NC(=O)[C@H]([C@@H](C)O)NC(=O)[C@H](CC(=O)O)NC(=O)[C@H](CO)NC(=O)[C@H](CCCNC(=N)N)N(C)C(=O)[C@@H](NC(C)=O)C(C)(C)SSC2(C)C)C(N)=O)C(N)=O)C(C)(C)SSC1(C)C` [compound 87] (I: Ac-[Pen][NMeR]SDTL[Pen]WD[dK]-NH2 / II: Ac-[Pen][NMeR]SDTL[Pen]WD[dK]-NH2; disulfide I:1-I:7, II:1-II:7; linker I:10-II:10 via Diglycolyl), the IC50 is 25 to 50 nM.
With `CC(=O)N[C@@H]1C(=O)N(C)[C@@H](CCCNC(=N)N)C(=O)N[C@@H](CO)C(=O)N[C@@H](CC(=O)O)C(=O)N[C@@H]([C@@H](C)O)C(=O)N[C@@H](CC(C)C)C(=O)N[C@H](C(=O)N[C@@H](Cc2c[nH]c3ccccc23)C(=O)N[C@H](Cc2ccccc2)C(=O)N[C@H](CCCCNC(=O)COCC(=O)NCCCC[C@@H](NC(=O)[C@@H](Cc2ccccc2)NC(=O)[C@H](Cc2c[nH]c3ccccc23)NC(=O)[C@H]2NC(=O)[C@H](CC(C)C)NC(=O)[C@H]([C@@H](C)O)NC(=O)[C@H](CC(=O)O)NC(=O)[C@H](CO)NC(=O)[C@H](CCCNC(=N)N)N(C)C(=O)[C@@H](NC(C)=O)C(C)(C)SSC2(C)C)C(N)=O)C(N)=O)C(C)(C)SSC1(C)C` [compound 91] (I: Ac-[Pen][NMeR]SDTL[Pen]W[dF][dK]-NH2 / II: Ac-[Pen][NMeR]SDTL[Pen]W[dF][dK]-NH2; disulfide I:1-I:7, II:1-II:7; linker I:10-II:10 via Diglycolyl), the IC50 lay within 100 to 500 nM.
Take `CC(=O)N[C@@H]1C(=O)N(C)[C@@H](CCCNC(=N)N)C(=O)N[C@@H](CO)C(=O)N[C@@H](CC(=O)O)C(=O)N[C@@H]([C@@H](C)O)C(=O)N[C@@H](CC(C)C)C(=O)N[C@H](C(=O)N[C@@H](Cc2c[nH]c3ccccc23)C(=O)N[C@H](Cc2ccc(O)cc2)C(=O)N[C@H](CCCCNC(=O)COCC(=O)NCCCC[C@@H](NC(=O)[C@@H](Cc2ccc(O)cc2)NC(=O)[C@H](Cc2c[nH]c3ccccc23)NC(=O)[C@H]2NC(=O)[C@H](CC(C)C)NC(=O)[C@H]([C@@H](C)O)NC(=O)[C@H](CC(=O)O)NC(=O)[C@H](CO)NC(=O)[C@H](CCCNC(=N)N)N(C)C(=O)[C@@H](NC(C)=O)C(C)(C)SSC2(C)C)C(N)=O)C(N)=O)C(C)(C)SSC1(C)C` [compound 92] (I: Ac-[Pen][NMeR]SDTL[Pen]W[dY][dK]-NH2 / II: Ac-[Pen][NMeR]SDTL[Pen]W[dY][dK]-NH2; disulfide I:1-I:7, II:1-II:7; linker I:10-II:10 via Diglycolyl): the concentration for half-maximal inhibition (IC50) was 50 to 100 nM.
Regarding `CC(=O)N[C@@H]1C(=O)N(C)[C@@H](CCCNC(=N)N)C(=O)N[C@@H](CO)C(=O)N[C@@H](CC(=O)O)C(=O)N[C@@H]([C@@H](C)O)C(=O)N[C@@H](CC(C)C)C(=O)N[C@H](C(=O)N2Cc3ccccc3C[C@H]2C(=O)N[C@H](CCC(=O)O)C(=O)N[C@H](CCCCNC(=O)COCC(=O)NCCCC[C@@H](NC(=O)[C@@H](CCC(=O)O)NC(=O)[C@@H]2Cc3ccccc3CN2C(=O)[C@@H]2CSSC(C)(C)[C@H](NC(C)=O)C(=O)N(C)[C@@H](CCCNC(=N)N)C(=O)N[C@@H](CO)C(=O)N[C@@H](CC(=O)O)C(=O)N[C@@H]([C@@H](C)O)C(=O)N[C@@H](CC(C)C)C(=O)N2)C(N)=O)C(N)=O)CSSC1(C)C` [compound 93] (I: Ac-[Pen][NMeR]SDTLC[Tic][dE][dK]-NH2 / II: Ac-[Pen][NMeR]SDTLC[Tic][dE][dK]-NH2; disulfide I:1-I:7, II:1-II:7; linker I:10-II:10 via Diglycolyl), the IC50 was 500 to 1000 nM.
Next, `CC(=O)N[C@@H]1C(=O)N(C)[C@@H](CCCNC(=N)N)C(=O)N[C@@H](CO)C(=O)N[C@@H](CC(=O)O)C(=O)N[C@@H]([C@@H](C)O)C(=O)N[C@@H](CC(C)C)C(=O)N[C@H](C(=O)N[C@@H](Cc2c[nH]c3ccccc23)C(=O)N2CCC[C@H]2C(=O)N[C@H](CCCCNC(=O)COCC(=O)NCCCC[C@@H](NC(=O)[C@@H]2CCCN2C(=O)[C@H](Cc2c[nH]c3ccccc23)NC(=O)[C@H]2NC(=O)[C@H](CC(C)C)NC(=O)[C@H]([C@@H](C)O)NC(=O)[C@H](CC(=O)O)NC(=O)[C@H](CO)NC(=O)[C@H](CCCNC(=N)N)N(C)C(=O)[C@@H](NC(C)=O)C(C)(C)SSC2(C)C)C(N)=O)C(N)=O)C(C)(C)SSC1(C)C` [compound 94] (I: Ac-[Pen][NMeR]SDTL[Pen]WP[dK]-NH2 / II: Ac-[Pen][NMeR]SDTL[Pen]WP[dK]-NH2; disulfide I:1-I:7, II:1-II:7; linker I:10-II:10 via Diglycolyl): 100 to 500 nM; `CC(=O)N[C@@H]1C(=O)N(C)[C@@H](CCCNC(=N)N)C(=O)N[C@@H](CO)C(=O)N[C@@H](CC(=O)O)C(=O)N[C@@H]([C@@H](C)O)C(=O)N[C@@H](CC(C)C)C(=O)N[C@H](C(=O)N[C@@H](Cc2c[nH]c3ccccc23)C(=O)N2CCC[C@H]2C(=O)N[C@@H](CCCCNC(=O)COCC(=O)NCCCC[C@H](NC(=O)[C@@H]2CCCN2C(=O)[C@H](Cc2c[nH]c3ccccc23)NC(=O)[C@H]2NC(=O)[C@H](CC(C)C)NC(=O)[C@H]([C@@H](C)O)NC(=O)[C@H](CC(=O)O)NC(=O)[C@H](CO)NC(=O)[C@H](CCCNC(=N)N)N(C)C(=O)[C@@H](NC(C)=O)C(C)(C)SSC2(C)C)C(N)=O)C(N)=O)C(C)(C)SSC1(C)C` [compound 95] (I: Ac-[Pen][NMeR]SDTL[Pen]WPK-NH2 / II: Ac-[Pen][NMeR]SDTL[Pen]WPK-NH2; disulfide I:1-I:7, II:1-II:7; linker I:10-II:10 via Diglycolyl): 100 to 500 nM.
Turning to `CC(=O)N[C@@H]1C(=O)N(C)[C@@H](CCCNC(=N)N)C(=O)N[C@@H](CO)C(=O)N[C@@H](CC(=O)O)C(=O)N[C@@H]([C@@H](C)O)C(=O)N[C@@H](CC(C)C)C(=O)N[C@H](C(=O)N[C@@H](Cc2c[nH]c3ccccc23)C(=O)N2CCC[C@@H]2C(=O)N[C@@H](CCCCNC(=O)COCC(=O)NCCCC[C@H](NC(=O)[C@H]2CCCN2C(=O)[C@H](Cc2c[nH]c3ccccc23)NC(=O)[C@H]2NC(=O)[C@H](CC(C)C)NC(=O)[C@H]([C@@H](C)O)NC(=O)[C@H](CC(=O)O)NC(=O)[C@H](CO)NC(=O)[C@H](CCCNC(=N)N)N(C)C(=O)[C@@H](NC(C)=O)C(C)(C)SSC2(C)C)C(N)=O)C(N)=O)C(C)(C)SSC1(C)C` [compound 96] (I: Ac-[Pen][NMeR]SDTL[Pen]W[dP]K-NH2 / II: Ac-[Pen][NMeR]SDTL[Pen]W[dP]K-NH2; disulfide I:1-I:7, II:1-II:7; linker I:10-II:10 via Diglycolyl), the half-maximal inhibitory concentration (IC50) fell in the range of 50 to 100 nM.
